Experimental findings from US8735414B2 (priority 2009, dated 2014) are described below.

For data set [1], the system named is bicistronic HCV replicon (replicon RNA, GenBank Accession No. AJ242654). The data set is described as follows: HCV Replicon Assay. It is filed as cell-based. As to conditions: Hepatitis C virus, 72 h, read-out: Replicon IC50.

The compound `Cc1cc2c(cc1F)c(C(N)=O)c(-c1ccc(S(=O)(=O)N[C@@H](C)C(F)(F)F)cn1)n2C1CCCCC1` [compound 706, 1-cyclohexyl-5-fluoro-6-methyl-2-(5-{[(2S)-1,1,1-trifluoropropan-2-yl]sulfamoyl}pyridin-2-yl)-1H-indole-3-carboxamide] showed a melting point of 273 to 279 °C. In addition, the IC50 in data set [1] is less than 500 nM.
For `N#Cc1c(-c2ncc(S(=O)(=O)NC(CF)CF)cn2)n(C2CCCC2)c2cc(Cl)ccc12` [compound 157, 2-(6-chloro-3-cyano-1-cyclopentyl-1H-indol-2-yl)-N-(1,3-difluoropropan-2-yl)pyrimidine-5-sulfonamide] the same measures were 233 to 238 °C and less than 500 nM.
For `CC(C)(C)NS(=O)(=O)c1ccc(-c2c(C#N)c3cc(F)c(C4CC4)cc3n2C2CCCC2)nc1` [compound 832, N-tert-butyl-6-(3-cyano-1-cyclopentyl-6-cyclopropyl-5-fluoro-1H-indol-2-yl)pyridine-3-sulfonamide] the same measures were 186 to 188 °C and less than 500 nM.
The compound `C[C@H](NS(=O)(=O)c1cnc(-c2c(C#N)c3ccc(CC(F)F)cc3n2CC2CC2)nc1)C(F)(F)F` [compound 622, 2-[3-cyano-1-(cyclopropylmethyl)-6-(2,2-difluoroethyl)-1H-indol-2-yl]-N-[(2S)-1,1,1-trifluoropropan-2-yl]pyrimidine-5-sulfonamide] returned a melting point of 195 to 205 °C. Besides, the IC50 in data set [1] was less than 500 nM.
The corresponding values for `Cc1ccc2c(c1)c(C#N)c(-c1ccc(S(=O)(=O)N[C@@H](C)C(F)(F)F)cn1)n2-c1ncccn1` [compound 843, 6-[3-cyano-5-methyl-1-(pyrimidin-2-yl)-1H-indol-2-yl]-N-[(2S)-1,1,1-trifluoropropan-2-yl]pyridine-3-sulfonamide] are 174 to 179 °C and less than 500 nM.
Turning to `Cc1cc2c(cc1F)c(C#N)c(-c1ccc(S(=O)(=O)N[C@@H](C)C(F)(F)F)cn1)n2-c1ccc(C#N)s1` [compound 1033, 6-[3-cyano-1-(5-cyanothiophen-2-yl)-5-fluoro-6-methyl-1H-indol-2-yl]-N-[(2S)-1,1,1-trifluoropropan-2-yl]pyridine-3-sulfonamide], the melting point was in the range of 182 to 184.6 °C. In addition, the IC50 in data set [1] was less than 500 nM.
The corresponding values for `N#Cc1c(-c2ncc(S(=O)(=O)NC(CF)CF)cn2)n(C2CCC2)c2cc(N3CCOCC3)ccc12` [compound 321, 2-[3-cyano-1-cyclobutyl-6-(morpholin-4-yl)-1H-indol-2-yl]-N-(1,3-difluoropropan-2-yl)pyrimidine-5-sulfonamide] are 223 to 225 °C and 500 to 2000 nM.
As for `Cc1cc2c(cc1F)c(C#N)c(-c1ccc(S(=O)(=O)N[C@@H](C)C(F)(F)F)cn1)n2-c1cscc1C` [compound 1056, 6-[3-cyano-5-fluoro-6-methyl-1-(4-methylthiophen-3-yl)-1H-indol-2-yl]-N-[(2S)-1,1,1-trifluoropropan-2-yl]pyridine-3-sulfonamide], the melting point lay in the range of 223.2 to 227.1 °C. The IC50 in data set [1] was less than 500 nM.
Turning to `C[C@@H](NS(=O)(=O)c1ccc(-c2c(C#N)c3ccc(OC(F)F)cc3n2C2CCCCC2)nc1)C(F)(F)F` [compound 195, 6-[3-cyano-1-cyclohexyl-6-(difluoromethoxy)-1H-indol-2-yl]-N-[(2R)-1,1,1-trifluoropropan-2-yl]pyridine-3-sulfonamide], the melting point was in the range of 170 to 172 °C. In data set [1], the IC50 was less than 500 nM.
For `CC(C)n1c(-c2ncc(S(=O)(=O)NC(CF)CF)cn2)c(C#N)c2ccc(F)cc21` [compound 165, 2-[3-cyano-6-fluoro-1-(propan-2-yl)-1H-indol-2-yl]-N-(1,3-difluoropropan-2-yl)pyrimidine-5-sulfonamide] the same measures were 149 to 150 °C and 500 to 2000 nM.
For `Cc1cc2c(cc1F)c(C#N)c(-c1ccc(S(=O)(=O)N[C@@H](C)C(F)(F)F)cn1)n2-c1c[nH]nc1C` [compound 1030, 6-[3-cyano-5-fluoro-6-methyl-1-(3-methyl-1H-pyrazol-4-yl)-1H-indol-2-yl]-N-[(2S)-1,1,1-trifluoropropan-2-yl]pyridine-3-sulfonamide] the same measures were 238.8 to 244 °C and 500 to 2000 nM.
For `CCc1cc(OC)c2c(C#N)c(-c3ccc(S(=O)(=O)N[C@@H](C)C(F)(F)F)cn3)n(C3CCC3)c2c1` [compound 858, 6-(3-cyano-1-cyclobutyl-6-ethyl-4-methoxy-1H-indol-2-yl)-N-[(2S)-1,1,1-trifluoropropan-2-yl]pyridine-3-sulfonamide] the same measures were 187 to 188 °C and 500 to 2000 nM.
In turn, `C[C@H](NS(=O)(=O)c1ccc(-c2c(C#N)c3cc(F)ccc3n2C2CCC2)nc1)C1CC1` [compound 142, 6-(3-cyano-1-cyclobutyl-5-fluoro-1H-indol-2-yl)-N-[(1S)-1-cyclopropylethyl]pyridine-3-sulfonamide] returned a melting point of 128 to 130 °C. Also, in data set [1], the IC50 is less than 500 nM.
Take `Cc1ccc2c(C#N)c(-c3ncc(S(=O)(=O)NC(C)C)cn3)n(CC3CC3)c2c1` [compound 168, 2-[3-cyano-1-(cyclopropylmethyl)-6-methyl-1H-indol-2-yl]-N-(propan-2-yl)pyrimidine-5-sulfonamide]: the melting point lay in the range of 245 to 247 °C. Moreover, the IC50 in data set [1] was less than 500 nM.
For the compound `CCCn1c(-c2ncc(S(=O)(=O)N[C@@H](C)C(F)(F)F)cn2)c(C#N)c2ccc(OC(F)F)cc21` [compound 400, 2-[3-cyano-6-(difluoromethoxy)-1-propyl-1H-indol-2-yl]-N-[(2S)-1,1,1-trifluoropropan-2-yl]pyrimidine-5-sulfonamide], the melting point was in the range of 207 to 208 °C. Further, the IC50 in data set [1] is less than 500 nM.
The corresponding values for `Cc1cc2c(cc1F)c(C#N)c(-c1ccc(S(=O)(=O)N[C@@H](C)C(F)(F)F)cn1)n2-c1ccc(C#N)cn1` [compound 743, 6-[3-cyano-1-(5-cyanopyridin-2-yl)-5-fluoro-6-methyl-1H-indol-2-yl]-N-[(2S)-1,1,1-trifluoropropan-2-yl]pyridine-3-sulfonamide] are 276 to 277 °C and less than 500 nM.
For `Cc1cc2c(cc1F)c(C#N)c(-c1ccc(S(=O)(=O)N[C@@H](C)C(F)(F)F)cn1)n2-c1ccsc1` [compound 992, 6-[3-cyano-5-fluoro-6-methyl-1-(thiophen-3-yl)-1H-indol-2-yl]-N-[(2S)-1,1,1-trifluoropropan-2-yl]pyridine-3-sulfonamide] the same measures were 196 to 203 °C and less than 500 nM.
The corresponding values for `CCc1cc2c(cc1F)c(C#N)c(-c1ccc(S(=O)(=O)N[C@@H](C)C(F)(F)F)cn1)n2-c1cccc(F)c1` [compound 1008, 6-[3-cyano-6-ethyl-5-fluoro-1-(3-fluorophenyl)-1H-indol-2-yl]-N-[(2S)-1,1,1-trifluoropropan-2-yl]pyridine-3-sulfonamide] are 210 to 214 °C and less than 500 nM.
`COc1cc2c(cc1F)c(C#N)c(-c1ccc(S(=O)(=O)NC(CF)CF)cn1)n2C1CCC1` [compound 102, 6-(3-cyano-1-cyclobutyl-5-fluoro-6-methoxy-1H-indol-2-yl)-N-(1,3-difluoropropan-2-yl)pyridine-3-sulfonamide] displayed a melting point of 217 to 219 °C. For the same compound, the IC50 in data set [1] is less than 500 nM.

As usually defined, the IC50 is the concentration needed to halve the response being measured. Usually melting point stands for the temperature of the solid-liquid transition.
